# What was measured:
# Format in all cases: functional
# CCRF-CEM = test: Growth inhibition of human CCRF-CEM cells at 10 uM incubated for 48 hrs by sulforhodamine B assay relative to control; settings: read-out: GI
# HOP-62 = test: Growth inhibition of human HOP-62 cells at 10 uM incubated for 48 hrs by sulforhodamine B assay relative to control; settings: read-out: GI
# HOP-92 [1] = test: Growth inhibition of human HOP-92 cells at 10 uM incubated for 48 hrs by sulforhodamine B assay relative to control; settings: read-out: GI
# NCI-H460 = test: Growth inhibition of human NCI-H460 cells at 10 uM incubated for 48 hrs by sulforhodamine B assay relative to control; settings: read-out: GI
# COLO 205 = test: Growth inhibition of human COLO 205 cells at 10 uM incubated for 48 hrs by sulforhodamine B assay relative to control; settings: read-out: GI
# HCT-116 = test: Growth inhibition of human HCT-116 cells at 10 uM incubated for 48 hrs by sulforhodamine B assay relative to control; settings: read-out: GI
# HCT-15 = test: Growth inhibition of human HCT-15 cells at 10 uM incubated for 48 hrs by sulforhodamine B assay relative to control; settings: read-out: GI
# SW-620 = test: Growth inhibition of human SW-620 cells at 10 uM incubated for 48 hrs by sulforhodamine B assay relative to control; settings: read-out: GI
# SNB-75 = test: Growth inhibition of human SNB-75 cells at 10 uM incubated for 48 hrs by sulforhodamine B assay relative to control; settings: read-out: GI
# LOX IMVI [2] = test: Growth inhibition of human LOX IMVI cells at 10 uM incubated for 48 hrs by sulforhodamine B assay relative to control; settings: read-out: GI
# SK-MEL-2 = test: Growth inhibition of human SK-MEL-2 cells at 10 uM incubated for 48 hrs by sulforhodamine B assay relative to control; settings: read-out: GI
# SK-MEL-28 = test: Growth inhibition of human SK-MEL-28 cells at 10 uM incubated for 48 hrs by sulforhodamine B assay relative to control; settings: read-out: GI
# NCI/ADR-RES = test: Growth inhibition of human NCI/ADR-RES cells at 10 uM incubated for 48 hrs by sulforhodamine B assay relative to control; settings: read-out: GI
# CAKI-1 [3] = test: Growth inhibition of human CAKI-1 cells at 10 uM incubated for 48 hrs by sulforhodamine B assay relative to control; settings: read-out: GI
# K562 = test: Growth inhibition of human K562 cells incubated for 48 hrs by sulforhodamine B assay
# EKVX [4] = test: Growth inhibition of human EKVX cells incubated for 48 hrs by sulforhodamine B assay
# HOP-92 [5] = test: Growth inhibition of human HOP-92 cells incubated for 48 hrs by sulforhodamine B assay
# NCI-H226 = test: Growth inhibition of human NCI-H226 cells incubated for 48 hrs by sulforhodamine B assay
# NCI-H23 = test: Growth inhibition of human NCI-H23 cells incubated for 48 hrs by sulforhodamine B assay
# SF-268 = test: Growth inhibition of human SF-268 cells incubated for 48 hrs by sulforhodamine B assay
# LOX IMVI [6] = test: Growth inhibition of human LOX IMVI cells incubated for 48 hrs by sulforhodamine B assay
# Malme-3M = test: Growth inhibition of human Malme-3M cells incubated for 48 hrs by sulforhodamine B assay
# M14 = test: Growth inhibition of human M14 cells incubated for 48 hrs by sulforhodamine B assay
# MDA-MB-435 = test: Growth inhibition of human MDA-MB-435 cells incubated for 48 hrs by sulforhodamine B assay
# SK-MEL-5 = test: Growth inhibition of human SK-MEL-5 cells incubated for 48 hrs by sulforhodamine B assay
# IGROV-1 = test: Growth inhibition of human IGROV-1 cells incubated for 48 hrs by sulforhodamine B assay
# SK-OV-3 = test: Growth inhibition of human SK-OV-3 cells incubated for 48 hrs by sulforhodamine B assay
# ACHN = test: Growth inhibition of human ACHN cells incubated for 48 hrs by sulforhodamine B assay
# CAKI-1 [7] = test: Growth inhibition of human CAKI-1 cells incubated for 48 hrs by sulforhodamine B assay
# DU-145 = test: Growth inhibition of human DU-145 cells incubated for 48 hrs by sulforhodamine B assay
# MCF7 = test: Growth inhibition of human MCF7 cells incubated for 48 hrs by sulforhodamine B assay
# MDA-MB-231 = test: Growth inhibition of human MDA-MB-231 cells incubated for 48 hrs by sulforhodamine B assay
# MDA-MB-468 = test: Growth inhibition of human MDA-MB-468 cells incubated for 48 hrs by sulforhodamine B assay
# EKVX [8] = test: Growth inhibition of human EKVX cells at 10 uM incubated for 48 hrs by sulforhodamine B assay relative to control; settings: read-out: GI
# A498 = test: Growth inhibition of human A498 cells at 10 uM incubated for 48 hrs by sulforhodamine B assay relative to control; settings: read-out: GI
# [9] = read-out: LC50 (the source's name)
smiles,measurement,setting,value
O=C(CNc1c(Cl)cccc1Cl)Nc1ccc(-c2nc3ccccc3s2)cc1,inhibition of growth at 10 µM,CCRF-CEM,97.8%
same,inhibition of growth at 10 µM,HOP-62,-18.3%
same,inhibition of growth at 10 µM,HOP-92 [1],5.78%
same,inhibition of growth at 10 µM,NCI-H460,8.81%
same,inhibition of growth at 10 µM,COLO 205,12.3%
same,inhibition of growth at 10 µM,HCT-116,70.1%
same,inhibition of growth at 10 µM,HCT-15,97.6%
same,inhibition of growth at 10 µM,SW-620,64.7%
same,inhibition of growth at 10 µM,SNB-75,40.8%
same,inhibition of growth at 10 µM,LOX IMVI [2],149%
same,inhibition of growth at 10 µM,SK-MEL-2,15.2%
same,inhibition of growth at 10 µM,SK-MEL-28,-3.93%
same,inhibition of growth at 10 µM,NCI/ADR-RES,36%
same,inhibition of growth at 10 µM,CAKI-1 [3],71.2%
same,GI50,K562,2860 nM
same,LC50,K562,> 100 µM
same,TGI,K562,11.5 µM
same,GI50,EKVX [4],8.29 µM
same,LC50,EKVX [4],55.2 µM
same,TGI,EKVX [4],22.6 µM
same,GI50,HOP-92 [5],1880 nM
same,LC50 (concentration killing 50% of cells),HOP-92 [5],26.7 µM
same,TGI,HOP-92 [5],6.3 µM
same,GI50,NCI-H226,2020 nM
same,LC50,NCI-H226,> 100 µM
same,TGI,NCI-H226,5.32 µM
same,GI50,NCI-H23,2000 nM
same,LC50 (lethal concentration 50%),NCI-H23,17.1 µM
same,TGI,NCI-H23,4.59 µM
same,GI50,SF-268,1990 nM
same,LC50,SF-268,9.52 µM
same,TGI,SF-268,4.35 µM
same,GI50,LOX IMVI [6],1190 nM
same,LC50,LOX IMVI [6],6.03 µM
same,TGI,LOX IMVI [6],2680 nM
same,GI50,Malme-3M,1710 nM
same,TGI,Malme-3M,3.43 µM
same,CC50,Malme-3M; [9],6.88 µM
same,GI50,M14,2200 nM
same,TGI,M14,6.55 µM
same,CC50,M14; [9],60.1 µM
same,GI50,MDA-MB-435,2600 nM
same,LC50,MDA-MB-435,99.6 µM
same,TGI,MDA-MB-435,11.3 µM
same,GI50,SK-MEL-5,1430 nM
same,LC50 (50% lethal concentration),SK-MEL-5,5.88 µM
same,TGI,SK-MEL-5,2900 nM
same,GI50,IGROV-1,1920 nM
same,TGI,IGROV-1,4.33 µM
same,CC50,IGROV-1; [9],9.73 µM
same,GI50,SK-OV-3,5.84 µM
same,LC50 (concentration killing 50% of cells),SK-OV-3,> 100 µM
same,TGI,SK-OV-3,50.9 µM
same,GI50,ACHN,1820 nM
same,LC50,ACHN,6.63 µM
same,TGI,ACHN,3.47 µM
same,GI50,CAKI-1 [7],2300 nM
same,LC50 (concentration killing 50% of cells),CAKI-1 [7],27.4 µM
same,TGI,CAKI-1 [7],6.71 µM
same,GI50,DU-145,3.33 µM
same,LC50 (concentration killing 50% of cells),DU-145,32.2 µM
same,TGI,DU-145,10.4 µM
same,GI50,MCF7,37.1 nM
same,LC50,MCF7,39.8 µM
same,TGI,MCF7,2490 nM
same,GI50,MDA-MB-231,2730 nM
same,LC50 (concentration causing 50% cell kill),MDA-MB-231,> 100 µM
same,TGI,MDA-MB-231,7.35 µM
same,GI50,MDA-MB-468,25.1 nM
same,TGI,MDA-MB-468,137 nM
same,CC50,MDA-MB-468; [9],4.33 µM
O=C(CNc1nnc(-c2ccc(Cl)cc2)o1)Nc1ccc(-c2nc3ccccc3s2)cc1,inhibition of growth at 10 µM,CCRF-CEM,46.7%
same,inhibition of growth at 10 µM,EKVX [8],-4.4%
same,inhibition of growth at 10 µM,HOP-62,-6.78%
same,inhibition of growth at 10 µM,HOP-92 [1],12.1%
same,inhibition of growth at 10 µM,NCI-H460,0.31%
same,inhibition of growth at 10 µM,COLO 205,-4.34%
same,inhibition of growth at 10 µM,HCT-116,10.2%
same,inhibition of growth at 10 µM,HCT-15,10.4%
same,inhibition of growth at 10 µM,SW-620,-9.76%
same,inhibition of growth at 10 µM,SNB-75,14.2%
same,inhibition of growth at 10 µM,LOX IMVI [2],143%
same,inhibition of growth at 10 µM,SK-MEL-28,-16.7%
same,inhibition of growth at 10 µM,NCI/ADR-RES,1.07%
same,inhibition of growth at 10 µM,A498,18%
same,inhibition of growth at 10 µM,CAKI-1 [3],-0.31%
O=C(Cn1ccnc1)Nc1ccc(-c2nc3ccccc3s2)cc1,inhibition of growth at 10 µM,CCRF-CEM,30.9%
same,inhibition of growth at 10 µM,EKVX [8],38.6%
same,inhibition of growth at 10 µM,HOP-62,16.2%
same,inhibition of growth at 10 µM,HOP-92 [1],24.2%
same,inhibition of growth at 10 µM,NCI-H460,20.2%
same,inhibition of growth at 10 µM,COLO 205,19.2%
same,inhibition of growth at 10 µM,HCT-116,31.9%
same,inhibition of growth at 10 µM,HCT-15,13%
same,inhibition of growth at 10 µM,SW-620,0.17%
same,inhibition of growth at 10 µM,SNB-75,11.2%
same,inhibition of growth at 10 µM,LOX IMVI [2],26.6%
same,inhibition of growth at 10 µM,SK-MEL-28,-4.87%
same,inhibition of growth at 10 µM,NCI/ADR-RES,11.8%
same,inhibition of growth at 10 µM,A498,42.5%
same,inhibition of growth at 10 µM,CAKI-1 [3],33.8%
O=C(Cn1nnc2ccccc21)Nc1ccc(-c2nc3ccccc3s2)cc1,inhibition of growth at 10 µM,CCRF-CEM,30.3%
same,inhibition of growth at 10 µM,EKVX [8],21.8%
same,inhibition of growth at 10 µM,HOP-62,-1.24%
same,inhibition of growth at 10 µM,HOP-92 [1],26.9%
same,inhibition of growth at 10 µM,NCI-H460,17%
same,inhibition of growth at 10 µM,COLO 205,-5.13%
same,inhibition of growth at 10 µM,HCT-116,2.6%
same,inhibition of growth at 10 µM,HCT-15,8.49%
same,inhibition of growth at 10 µM,SW-620,5.47%
same,inhibition of growth at 10 µM,SNB-75,-6.26%
same,inhibition of growth at 10 µM,LOX IMVI [2],15.8%
same,inhibition of growth at 10 µM,SK-MEL-2,-0.54%
same,inhibition of growth at 10 µM,SK-MEL-28,-1.87%
same,inhibition of growth at 10 µM,NCI/ADR-RES,3.77%
same,inhibition of growth at 10 µM,A498,14.9%
same,inhibition of growth at 10 µM,CAKI-1 [3],14.5%
